Experimental data from ChEMBL document CHEMBL1201862, “PubChem BioAssay data set” (2004).
Activity calls are given as the source filed them.

How the values were obtained:
cells [1] = type: functional, cell-based
cells [2] = type: functional, cell-based; remark: listed apart in the source
Escherichia coli = assay: microbe, parasite or virus in culture
[3] = target: T1, Microphthalmia-associated transcription factor (Homo sapiens, UniProt O75030); assay: reducers of TRPM1 reporter luminescence, concentration series – cell-based, SK-MEL-5, cherry-picked, set 3, MITF inhibitor project, dose response (AID 493073); type: functional;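 further: SK-MEL-5 melanoma cells with luciferase driven by the MITF target TRPM1 promoter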
T1 sequence (O75030 whole entry): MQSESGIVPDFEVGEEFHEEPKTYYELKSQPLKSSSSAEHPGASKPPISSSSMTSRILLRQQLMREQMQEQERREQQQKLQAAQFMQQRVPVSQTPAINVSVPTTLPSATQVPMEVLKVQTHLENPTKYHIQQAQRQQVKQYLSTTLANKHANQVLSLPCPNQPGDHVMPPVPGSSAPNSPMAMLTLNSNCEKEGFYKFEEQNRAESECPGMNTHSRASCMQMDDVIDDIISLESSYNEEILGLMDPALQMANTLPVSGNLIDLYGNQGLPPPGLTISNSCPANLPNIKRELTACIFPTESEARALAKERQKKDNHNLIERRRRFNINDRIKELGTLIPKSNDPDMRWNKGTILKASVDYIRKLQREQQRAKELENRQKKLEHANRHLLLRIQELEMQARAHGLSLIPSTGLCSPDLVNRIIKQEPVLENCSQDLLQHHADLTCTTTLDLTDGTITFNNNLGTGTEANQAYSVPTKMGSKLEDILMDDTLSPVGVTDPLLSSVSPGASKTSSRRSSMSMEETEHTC

A-375 = assay: proliferation inhibition in MITF-low A375 cells – cell-based, cherry-pick samples, set 2, counter-screen for MITF modulator project, dose response (AID 540335); type: functional; settings: Homo sapiens
[4] = target: Eukaryotic translation initiation factor 4E (Mus musculus, UniProt P63073); assay: blockers of eIF4G binding by eIF4E – biochemical, TR-FRET, dose response (AID 855); type: functional;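 further: potency for disrupting eIF4E binding to eIF4GI seen as loss of FRET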
Cytochrome P450 2C19 = Cytochrome P450 2C19 (Homo sapiens, UniProt P33261); assay: Cytochrome panel assay with activity outcomes. Panel member name: p450-cyp2c19 Compounds with AC50 equal or less than 10 uM are considered active; type: functional; settings: read-out: AC50
Cytochrome P450 1A2 = target: T2, Cytochrome P450 1A2 (Homo sapiens, UniProt P05177);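 further: PubChem cytochrome P450 panel assay, CYP1A2 panel member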
T2 sequence (P05177 whole entry): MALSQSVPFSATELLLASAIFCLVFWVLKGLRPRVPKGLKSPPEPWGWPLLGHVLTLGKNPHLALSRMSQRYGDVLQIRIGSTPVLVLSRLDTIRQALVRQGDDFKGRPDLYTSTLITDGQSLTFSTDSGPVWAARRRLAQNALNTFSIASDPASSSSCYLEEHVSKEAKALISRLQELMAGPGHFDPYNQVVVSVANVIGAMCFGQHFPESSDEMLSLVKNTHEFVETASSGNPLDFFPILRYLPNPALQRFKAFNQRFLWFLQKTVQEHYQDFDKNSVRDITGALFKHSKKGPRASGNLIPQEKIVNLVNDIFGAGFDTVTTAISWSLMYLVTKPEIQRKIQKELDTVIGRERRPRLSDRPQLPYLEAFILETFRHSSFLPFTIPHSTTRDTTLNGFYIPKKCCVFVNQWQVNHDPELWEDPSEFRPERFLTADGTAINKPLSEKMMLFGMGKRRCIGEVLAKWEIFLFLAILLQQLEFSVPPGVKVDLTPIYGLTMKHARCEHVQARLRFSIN

Cytochrome P450 2C9 = Cytochrome P450 2C9 (Homo sapiens, UniProt P11712)
Cytochrome P450 3A4 = Cytochrome P450 3A4 (Homo sapiens, UniProt P08684);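 further: CYP3A4 tested as one member of a cytochrome P450 panel screen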
[5] = A Cell Based Secondary Assay To Explore Cytotoxicity of Compounds that Sensitize Mycobacterium Tuberculosis to Beta-Lactam Antibiotics.; type: functional

Sequence of Cytochrome P450 3A4 (P08684 whole entry): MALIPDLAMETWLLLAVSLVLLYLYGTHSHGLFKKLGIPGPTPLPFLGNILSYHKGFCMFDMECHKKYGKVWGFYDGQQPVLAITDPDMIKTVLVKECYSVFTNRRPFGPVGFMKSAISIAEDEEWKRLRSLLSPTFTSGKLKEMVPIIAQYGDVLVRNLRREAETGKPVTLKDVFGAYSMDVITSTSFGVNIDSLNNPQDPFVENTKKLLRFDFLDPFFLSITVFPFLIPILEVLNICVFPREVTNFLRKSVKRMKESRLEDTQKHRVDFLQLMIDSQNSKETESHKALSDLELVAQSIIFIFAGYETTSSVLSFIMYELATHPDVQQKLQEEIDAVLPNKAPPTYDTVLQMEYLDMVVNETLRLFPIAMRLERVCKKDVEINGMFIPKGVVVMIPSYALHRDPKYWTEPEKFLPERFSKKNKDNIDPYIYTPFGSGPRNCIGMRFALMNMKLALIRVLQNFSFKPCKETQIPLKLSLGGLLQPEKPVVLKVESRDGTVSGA
Sequence of Eukaryotic translation initiation factor 4E (P63073 whole entry): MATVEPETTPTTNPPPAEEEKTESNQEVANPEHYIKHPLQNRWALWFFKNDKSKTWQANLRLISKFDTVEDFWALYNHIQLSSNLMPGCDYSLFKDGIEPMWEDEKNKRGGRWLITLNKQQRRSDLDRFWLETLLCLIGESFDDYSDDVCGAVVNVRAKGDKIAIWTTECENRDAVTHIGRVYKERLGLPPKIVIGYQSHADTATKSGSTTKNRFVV
Sequence of Cytochrome P450 2C9 (P11712 whole entry): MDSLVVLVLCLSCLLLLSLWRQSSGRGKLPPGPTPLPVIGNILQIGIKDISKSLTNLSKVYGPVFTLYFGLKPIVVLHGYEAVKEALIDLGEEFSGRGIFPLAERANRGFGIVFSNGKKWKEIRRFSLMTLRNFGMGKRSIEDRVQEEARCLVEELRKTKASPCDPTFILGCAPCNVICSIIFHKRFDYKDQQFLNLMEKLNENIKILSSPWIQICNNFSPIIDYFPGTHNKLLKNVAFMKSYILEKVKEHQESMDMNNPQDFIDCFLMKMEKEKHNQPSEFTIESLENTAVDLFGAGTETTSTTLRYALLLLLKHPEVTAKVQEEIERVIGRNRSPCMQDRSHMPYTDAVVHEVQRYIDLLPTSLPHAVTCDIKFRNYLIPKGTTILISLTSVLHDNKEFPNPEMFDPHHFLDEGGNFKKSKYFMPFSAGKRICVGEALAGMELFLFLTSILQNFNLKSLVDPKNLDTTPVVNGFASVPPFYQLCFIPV
Sequence of Cytochrome P450 2C19 (P33261 whole entry): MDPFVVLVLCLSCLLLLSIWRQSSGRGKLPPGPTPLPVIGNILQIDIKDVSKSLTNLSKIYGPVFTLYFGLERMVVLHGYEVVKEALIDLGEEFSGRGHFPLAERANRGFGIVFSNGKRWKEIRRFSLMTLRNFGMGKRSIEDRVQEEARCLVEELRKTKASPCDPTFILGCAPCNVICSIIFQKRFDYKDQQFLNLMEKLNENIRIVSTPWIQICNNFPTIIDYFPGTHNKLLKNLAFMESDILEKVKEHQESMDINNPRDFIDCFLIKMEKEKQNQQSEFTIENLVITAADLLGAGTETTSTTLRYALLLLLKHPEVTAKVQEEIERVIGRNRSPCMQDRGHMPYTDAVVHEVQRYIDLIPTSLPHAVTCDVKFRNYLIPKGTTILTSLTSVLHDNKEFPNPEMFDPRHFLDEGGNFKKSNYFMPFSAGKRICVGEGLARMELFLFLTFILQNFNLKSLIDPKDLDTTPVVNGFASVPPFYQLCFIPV

## O=S(=O)(/C=C/c1ccccc1)N1CCNCC1
Cells [1]
  EC50: > 350 µM (not active)
Cells [2]
  EC50: > 350 µM (not active)

## CCC(CC)C(=O)Nc1nnc(S(=O)(=O)N2CCCCCC2)s1
Escherichia coli
  AC50: 29.7 µM (active)

## COc1ccc(C(CC(=O)NCc2ccccc2)Sc2n[nH]c(-c3ccccc3)n2)cc1 (stereo not drawn)
Cells [1]
  EC50: > 350 µM (not active)
Cells [2]
  EC50: > 350 µM (not active)

## COC(=O)C1=C(C)N(Cc2ccccc2)C(NCc2ccccc2)=N[C@H]1c1ccccc1
[3]
  AC50: 18 µM (active)
A-375
  AC50: 23.7 µM (active)

## Cc1ccc(Nc2nc(Oc3ccc(=O)[nH]n3)nc(N(C)C)n2)cc1
[4]
  IC50: > 64 µM (inactive)

## CC1(C2CC2)NC(=O)NC1=O (stereo not drawn)
[4]
  IC50: > 64 µM (inactive)

## COc1ccc(Oc2nc(C)cc(C)c2S(C)(=O)=O)cc1
Cytochrome P450 2C19
  AC50: 25.1 µM (inconclusive)
Cytochrome P450 1A2
  AC50: 11.2 µM (inconclusive)
Cytochrome P450 2C9
  AC50: 15.8 µM (inconclusive)
Cytochrome P450 3A4
  AC50: inconclusive

## CCC(CC)c1nnc(NC(=O)COc2ccc3c(C)cc(=O)oc3c2)s1
Cytochrome P450 2C9
  AC50: 7.08 µM (inconclusive)
Cytochrome P450 3A4
  AC50: inconclusive

## O=C(Cc1cccc2ccccc12)N/N=C/c1ccc(OC(=O)/C=C/c2ccco2)cc1
[5]
  CC50: 31.2 µM (active)

## C/C(=N\O)C(=O)Nc1ccccc1
Cells [1]
  EC50: > 350 µM (not active)
Cells [2]
  EC50: > 350 µM (not active)
